# Laboratory results: paper PMC9958325 (Nature Communications, 2023)
# Where “and” joins values, the source holds several entries; their conditions need not be identical. Equal values may be shown once. Read-outs that look alike come from different tables or passages of the source.
# Legend:
# human calpain = target: T1, human calpain (Homo sapiens, UniProt P07384); assay: Human calpain activity assay; type: biochemical; conditions: for %inhibition against humanCalpain: triplicate
# T1 sequence (P07384 2-714): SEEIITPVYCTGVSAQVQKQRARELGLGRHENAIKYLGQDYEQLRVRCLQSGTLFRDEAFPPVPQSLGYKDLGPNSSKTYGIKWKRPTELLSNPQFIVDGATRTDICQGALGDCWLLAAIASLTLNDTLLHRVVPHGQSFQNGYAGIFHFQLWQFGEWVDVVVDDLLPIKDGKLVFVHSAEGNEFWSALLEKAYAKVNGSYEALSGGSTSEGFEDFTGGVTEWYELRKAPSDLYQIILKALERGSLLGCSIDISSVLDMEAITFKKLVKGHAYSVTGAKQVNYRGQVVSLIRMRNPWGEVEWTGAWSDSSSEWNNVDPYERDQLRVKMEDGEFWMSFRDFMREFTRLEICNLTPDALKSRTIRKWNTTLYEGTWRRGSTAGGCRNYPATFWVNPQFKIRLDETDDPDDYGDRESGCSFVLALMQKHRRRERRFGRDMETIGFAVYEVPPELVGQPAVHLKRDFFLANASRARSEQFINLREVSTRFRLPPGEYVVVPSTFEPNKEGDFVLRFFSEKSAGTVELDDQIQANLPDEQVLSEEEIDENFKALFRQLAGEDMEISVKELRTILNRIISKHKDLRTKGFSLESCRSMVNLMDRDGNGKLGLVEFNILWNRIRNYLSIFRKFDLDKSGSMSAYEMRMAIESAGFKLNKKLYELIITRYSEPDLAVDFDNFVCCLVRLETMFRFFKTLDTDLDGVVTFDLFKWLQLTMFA
# T1 sequence (P04632 1-268 partner): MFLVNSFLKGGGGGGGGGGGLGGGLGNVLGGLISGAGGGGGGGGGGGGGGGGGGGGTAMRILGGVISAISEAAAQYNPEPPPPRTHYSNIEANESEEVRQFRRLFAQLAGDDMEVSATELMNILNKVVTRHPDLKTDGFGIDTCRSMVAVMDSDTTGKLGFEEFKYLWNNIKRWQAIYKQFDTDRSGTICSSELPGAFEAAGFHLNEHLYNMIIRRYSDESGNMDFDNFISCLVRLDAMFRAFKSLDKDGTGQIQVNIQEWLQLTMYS
# SARS-CoV-2^WK-521 = assay: microbe, parasite or virus in culture; type: cell-based; parameters: EC95, individual assays / EC95, Average: unit: µM
# [1] = tested on: SARS-CoV-2 TKYX00012/ο BA.1; assay: microbe, parasite or virus in culture; type: cell-based
# [2] = tested on: SARS-CoV-2 TKYS02037/ο BA.2; assay: microbe, parasite or virus in culture; type: cell-based
# [3] = tested on: SARS-CoV-2 TKYTS14631/ο BA.5; assay: microbe, parasite or virus in culture; type: cell-based
# [4] = tested on: SARS-CoV-2 UT-NCD1757-1N/ο BA.2.75; assay: microbe, parasite or virus in culture; type: cell-based
# [5] = tested on: SARS-CoV-2^WK521 in HeLa-ACE2-TMPRSS2 cells; assay: Antiviral assay, HeLa-ACE2-TMPRSS2 cells, WK521; type: cell-based
# [6] = tested on: SARS-CoV-2^WK521 in A549-ACE2-TMPRSS2 cells; assay: Antiviral assay, A549-ACE2-TMPRSS2 cells, WK521; type: cell-based
# [7] = Pharmacokinetic study in PXB-mice (human liver-chimeric)
# HeLa-ACE2-TMPRSS2 cells = assay: Intracellular concentrations of compounds (LC/MS), HeLa-ACE2-TMPRSS2 cells; conditions: 6 h; for Intracellular amount relative to nirmatrelvir: HeLa-ACE2-TMPRSS2 cells; for Intracellular amount, individual: listed as TKB-0248
smiles,measurement,setting,value
CC(C)(C)[C@H](NC(=O)C(F)(F)F)C(=O)N1C[C@H]2[C@@H]([C@H]1C(=S)N[C@@H](C[C@@H]1CCNC1=O)C(=O)c1nc3c(F)cccc3s1)C2(C)C [TKB248],Effect on human calpain (in words),human calpain,"neither of human cysteine enzymes, cathepsin L and calpain, were significantly affected"
same,%inhibition against humanCalpain,human calpain; 0.000128 µM,0%
same,%inhibition against humanCalpain,human calpain; 0.00064 µM,0%
same,%inhibition against humanCalpain,human calpain; 0.0032 µM,0%
same,%inhibition against humanCalpain,human calpain; 0.08 µM,0%
same,%inhibition against humanCalpain,human calpain; 0.4 µM,0%
same,%inhibition against humanCalpain,human calpain; 2 µM,1%
same,IC50,"human calpain; 60 minute incubation, mean ± 1 S.D., n=3, read-out: IC50, human calpains",> 2 µM
same,"EC95, Average",SARS-CoV-2^WK-521,0.8712
same,"EC95, individual assays",SARS-CoV-2^WK-521,0.89 and 0.81 and 0.885 and 0.9
same,SARS-CoV2 RNA VeroE6 cell-based assay EC95,SARS-CoV-2^WK-521,0.87 ± 0.04 µM
same,EC50,"SARS-CoV-2^WK-521; read-out: EC50, Average",0.225 µM
same,EC50,"SARS-CoV-2^WK-521; read-out: EC50, VeroE6 + 2 µM CP100356",0.03 ± 0.03 µM
same,EC50,"SARS-CoV-2^WK-521; read-out: EC50, VeroE6 with CP100356, Average",0.035 µM
same,EC50,"SARS-CoV-2^WK-521; read-out: EC50, VeroE6 with CP100356, individual assays",0.023 µM and 0.065 µM and 0.017 µM
same,EC50,"SARS-CoV-2^WK-521; read-out: EC50, individual assays",0.31 µM and 0.23 µM and 0.24 µM and 0.12 µM
same,EC50,SARS-CoV-2^WK-521; read-out: SARS-CoV2 RNA VeroE6 cell-based assay EC50,0.22 ± 0.08 µM
same,EC50,[1]; read-out: EC50 against KTKYX00012/ο BA.1,0.282 ± 0.043 µM
same,EC50,"[1]; read-out: EC50 ο BA1, Average",0.282 µM
same,EC50,"[1]; read-out: EC50 ο BA1, individual assays",0.29 µM and 0.235 µM and 0.32 µM
same,EC50,[2]; read-out: EC50 against TKYVS2037/ο BA.2,0.21 ± 0.087 µM
same,EC50,"[2]; read-out: EC50 ο BA2, individual assays",0.15 µM
same,EC50,[3]; read-out: EC50 against TKYTS14631/ο BA.5,0.07 ± 0.008 µM
same,EC50,"[3]; read-out: EC50 ο BA5, Average",0.0707 µM
same,EC50,"[3]; read-out: EC50 ο BA5, individual assays",0.0671 µM and 0.08 µM and 0.065 µM
same,EC50,[4]; read-out: EC50 against UT-NCD1757-1N/ο BA.2.75,0.43 ± 0.091 µM
same,EC50,"[4]; read-out: EC50 ο BA2.75, individual assays",0.43 µM and 0.32 µM and 0.25 µM
same,EC50,"[5]; SARS-CoV-2^WK521, read-out: EC50, HeLa-ACE2-TMPRSS2",0.16 ± 0.075 µM
same,EC50,"[5]; source data, listed as TKB0248, read-out: EC50, HeLa-AEC2-TMPRSS2, individual assays",0.23 µM and 0.08 µM and 0.17 µM
same,EC50,"[6]; SARS-CoV-2^WK521, read-out: EC50, A549-ACE2-TMPRSS2",0.199 ± 0.005 µM
same,EC50,"[6]; source data, listed as TKB0248, read-out: EC50, A549-AEC2-TMPRSS2, individual assays",0.2 µM and 0.204 µM and 0.193 µM
same,EC50,"[6]; source data, read-out: EC50, A549-AEC2-TMPRSS2, Average",0.199 µM
same,Cmax,"[7]; N = 3 male PXB-mouse, 10 mg/kg p.o.","1,925¶ ng/mL"
same,T1/2,"[7]; N = 3 male PXB-mouse, 10 mg/kg, oral (p.o.) value for TKB245",4.34¶ h
same,Plasma concentration,"[7]; PXB-mice, i.v. 10 mg/kg, 10 min, individual mice, listed as TKB0248, 10 mg/kg",8186.6 ng/mL and 8038.7 ng/mL and 9327.7 ng/mL
same,Plasma concentration,"[7]; PXB-mice, i.v. 10 mg/kg, 0.17 hr, individual mice, listed as TKB0248, 10 mg/kg",8190 ng/mL and 8040 ng/mL and 9330 ng/mL
same,Plasma concentration,"[7]; PXB-mice, i.v. 10 mg/kg, 60 min, individual mice, listed as TKB0248, 10 mg/kg",3193.2 ng/mL and 4290.6 ng/mL and 4927 ng/mL
same,Plasma concentration,"[7]; PXB-mice, i.v. 10 mg/kg, 1 hr, individual mice, listed as TKB0248, 10 mg/kg",3190 ng/mL and 4290 ng/mL and 4930 ng/mL
same,Plasma concentration,"[7]; PXB-mice, i.v. 10 mg/kg, 240 min, individual mice, listed as TKB0248, 10 mg/kg",955 ng/mL and 1072.2 ng/mL and 1659.6 ng/mL
same,Plasma concentration,"[7]; PXB-mice, i.v. 10 mg/kg, 4 hr, individual mice, listed as TKB0248, 10 mg/kg",960 ng/mL and 1070 ng/mL and 1660 ng/mL
same,Plasma concentration,"[7]; PXB-mice, i.v. 10 mg/kg, 480 min, individual mice, listed as TKB0248, 10 mg/kg",290 ng/mL and 301.5 ng/mL and 497.6 ng/mL
same,Plasma concentration,"[7]; PXB-mice, i.v. 10 mg/kg, 8 hr, individual mice, listed as TKB0248, 10 mg/kg",290 ng/mL and 300 ng/mL and 500 ng/mL
same,Plasma concentration,"[7]; PXB-mice, i.v. 10 mg/kg, 1440 min, individual mice, listed as TKB0248, 10 mg/kg",13.9 ng/mL and 20.8 ng/mL and 20 ng/mL
same,Plasma concentration,"[7]; PXB-mice, i.v. 10 mg/kg, 24 hr, individual mice, listed as TKB0248, 10 mg/kg",0.01 µg/ml and 0.02 µg/ml (2×)
same,Plasma concentration,"[7]; PXB-mice, p.o. 10 mg/kg, 10 min, individual mice, listed as TKB0248, 10 mg/kg",803.8 ng/mL and 639.6 ng/mL and 800.1 ng/mL
same,Plasma concentration,"[7]; PXB-mice, p.o. 10 mg/kg, 0.17 hr, individual mice, listed as TKB0248, 10 mg/kg",0.8 µg/ml (2×) and 0.64 µg/ml
same,Plasma concentration,"[7]; PXB-mice, p.o. 10 mg/kg, 60 min, individual mice, listed as TKB0248, 10 mg/kg",2400.6 ng/mL and 1592.1 ng/mL and 1781.9 ng/mL
same,Plasma concentration,"[7]; PXB-mice, p.o. 10 mg/kg, 1 hr, individual mice, listed as TKB0248, 10 mg/kg",2400 ng/mL and 1590 ng/mL and 1780 ng/mL
same,Plasma concentration,"[7]; PXB-mice, p.o. 10 mg/kg, 240 min, individual mice, listed as TKB0248, 10 mg/kg",1886.1 ng/mL and 944.6 ng/mL and 788.3 ng/mL
same,Plasma concentration,"[7]; PXB-mice, p.o. 10 mg/kg, 4 hr, individual mice, listed as TKB0248, 10 mg/kg",1890 ng/mL and 940 ng/mL and 790 ng/mL
same,Plasma concentration,"[7]; PXB-mice, p.o. 10 mg/kg, 480 min, individual mice, listed as TKB0248, 10 mg/kg",645.5 ng/mL and 263.6 ng/mL and 711 ng/mL
same,Plasma concentration,"[7]; PXB-mice, p.o. 10 mg/kg, 8 hr, individual mice, listed as TKB0248, 10 mg/kg",650 ng/mL and 260 ng/mL and 710 ng/mL
same,Plasma concentration,"[7]; PXB-mice, p.o. 10 mg/kg, 1440 min, individual mice, listed as TKB0248, 10 mg/kg",66.2 ng/mL and 80.3 ng/mL and 54.4 ng/mL
same,Plasma concentration,"[7]; PXB-mice, p.o. 10 mg/kg, 24 hr, individual mice, listed as TKB0248, 10 mg/kg",70 ng/mL and 80 ng/mL and 50 ng/mL
same,Oral F,"[7]; male PXB-mouse 10 mg/kg i.v. and p.o., dose-normalized AUC ratio, 10 mg/kg",72% and 72¶ %
same,Plasma concentration,"[7]; p.o., 10 min, individual animals (3 per time point), LC/MS/MS, listed as TKB0248",803.78 ng/mL and 639.58 ng/mL and 800.12 ng/mL
same,Plasma concentration,"[7]; p.o., 60 min, individual animals (3 per time point), LC/MS/MS, listed as TKB0248",2400.63 ng/mL and 1592.07 ng/mL and 1781.87 ng/mL
same,Plasma concentration,"[7]; p.o., 240 min, individual animals (3 per time point), LC/MS/MS, listed as TKB0248",1886.06 ng/mL and 944.61 ng/mL and 788.27 ng/mL
same,Plasma concentration,"[7]; p.o., 480 min, individual animals (3 per time point), LC/MS/MS, listed as TKB0248",645.53 ng/mL and 263.61 ng/mL and 711.03 ng/mL
same,Plasma concentration,"[7]; p.o., 1440 min, individual animals (3 per time point), LC/MS/MS, listed as TKB0248",66.21 ng/mL and 80.35 ng/mL and 54.38 ng/mL
same,Intracellular amount relative to nirmatrelvir,HeLa-ACE2-TMPRSS2 cells; 50 µM,318 fold
same,Intracellular amount relative to nirmatrelvir,HeLa-ACE2-TMPRSS2 cells; 100 µM,165 fold
same,"Intracellular amount, avg","HeLa-ACE2-TMPRSS2 cells; Hela ACE2 TMPRSS2, 10uM",295.717 pmol(total)
same,"Intracellular amount, individual","HeLa-ACE2-TMPRSS2 cells; Hela ACE2 TMPRSS2, 10uM",295.283 pmol(total) and 296.151 pmol(total)
same,"Intracellular amount, avg","HeLa-ACE2-TMPRSS2 cells; Hela ACE2 TMPRSS2, 50uM",570.720 pmol(total)
same,"Intracellular amount, individual","HeLa-ACE2-TMPRSS2 cells; Hela ACE2 TMPRSS2, 50uM",643.805 pmol(total) and 497.635 pmol(total)
same,"Intracellular amount, avg","HeLa-ACE2-TMPRSS2 cells; Hela ACE2 TMPRSS2, 100uM",630.843 pmol(total)
same,"Intracellular amount, individual","HeLa-ACE2-TMPRSS2 cells; Hela ACE2 TMPRSS2, 100uM",605.189 pmol(total) and 656.496 pmol(total)
